According to patent US20230263800A1, “COMPOSITIONS AND METHODS TO PROMOTE THYMIC FUNCTION” (Fred Hutchinson Cancer Center, priority 2020, published 2023):
Entries after “also recorded” stand apart in the source; their conditions may differ. Like-named read-outs stand apart in the source and are kept apart here.

Legend:
Foxn1 in C9 (cTEC) cells = assay: Foxn1 expression by qPCR in C9 cells; type: cell-based, mouse
Method: (§1) FIGS. 7A, 7B. […] Graphs represent mean±SEM, each dot represents a biologically independent observation (n=3 independent experiments). *, p<0.05; **, p<0.01; ***p<0.001.
(§2) FIGS. 18A-18G. Thymuses were harvested at d0, d1, d2, and d3 after TBI (550 cGy) and (18A) mitochondrial membrane potential, (18B) Reactive oxygen species (ROS) levels, and (18C) glutathione levels were measured in DP thymocytes and cTECs (n=4-7 mice from 1-2 experiments). (18D) Foxn1 expression in FACs-purified cTECs at d0, d4, and d7 after TBI; (18E) Intracellular Ca2+ levels were measured on whole thymus harvested at d0, d2, d4, and d7 post SL-TBI. (18F, 18G) Foxn1 expression levels were measured by qPCR in (18F) C9, and (18G) TE71 cells after treatment with Tunicamycin (5 ug/ml) or Thapsigargan (1 μg/ml). Graphs represent mean+/−SD.
FIGS. 19A, 19B. (19A) C9s were treated with (19A) ATP and P2X7 antagonist or (19B) P2Y2 agonist or antagonist and FOXN1 expression was assessed by qPCR after 20 h. Graphs represent mean+/−SEM.
(§3) Cell cultures. exEC were generated as previously described (Seandel et al., Proc Natl Acad Sci USA. 2008, 105(49):19288-19293). Cells were cultured in presence of ultrapure Zn sulfate monohydrate purchased from Alfa Aesar (Haverhill, Mass. #1113809) or sodium pyrythione (Sigma Aldrich, St. Louis, Mo. #H3261-1G). TC-G 1008 was used in cell cultures at a final concentration of 25 μM. Silencing of the zinc receptor Gpr39 was performed by electroporation using Nucleofector electroporation kit (VPI-1001, Lonza; Program M-003, Nucleofector 2b, Lonza), and the GPR39 siRNA Silencer Select (Thermo, Waltham, Mass.). Mouse C9 (cTEC) and TE-71 (mTEC) cells were kindly provided by A. Farr, University of Washington.
PCR and Microarray. Reverse transcription-PCR was performed with iScript Clear gDNA cDNA synthesis kit (Bio Rad, Hercules, Calif.) on CFX96 (Bio Rad, Hercules, Calif.) with iTaq Universal SYBR Green (Bio Rad). Relative amounts of mRNA were calculated by the comparative AC(t) method or as relative expression. SYBR Green gene expression assays for qPCR, including Bmp4 (Mm00432087_m1), Foxn1 (Mm00433948_m1), beta-actin, Gpr39, Top1 were all purchased from Life Technologies (Carlsbad, Calif.) and Bio Rad (Hercules, Calif.). b-actin: synthesized by IDT, F: 5′-[…]-3′ (SEQ ID NO: 6), R: 5′-[…]-3′ (SEQ ID NO: 7). Top1: synthesized by IDT, sequences provided by PrimerBank, PrimerBank ID 6678399a1. Bmp4: Biorad qMmuCED0046239. Foxn1: Biorad qMmuCED0044924. Microarray data from CD45^− cells was analyzed on day 0, 4 and 7 as previously described (Wertheimer et al., Science Immunology. 2018, 3(19)) (GSE106982) and differential gene expression of Gpr39 was calculated.

[1] = system: C57BL/6 mice given sublethal TBI; assay: Thymic regeneration after sublethal total body irradiation (SL-TBI, 550 cGy); type: in vivo, mouse; settings: for thymic regeneration (thymus cellularity): day 14
Source text: FIGS. 4A-4G. […] (4A, 4B) 6-8 week-old female C57BL/6 mice were fed a normal or ZD diet for 21 days at which point mice were given a sublethal dose of total body irradiation (TBI, 550 cGy). (4A) Total thymic cellularity at days 7 and 14 after TBI (n=10/treatment/timepoint across two independent experiments). (4B) Total number of CD45-EpCAM^+MHCII^+UEA1^loLy51^hi (cTECs) and CD45^− EpCAM^+MHCII^+UEA1^hi Ly51^lo (mTECs) at days 7 and 14 after TBI (n=10/treatment/timepoint across two independent experiments). (4C) 6-12 week-old female BALB.B mice were fed with normal or ZD diet for 21 days, at which point mice were given a lethal dose of TBI (900cGy) and 10×10^6 T cell-depleted bone marrow (BM) cells from 6-8 week-old C57BL/6. One cohort also received 2×10^6 T cells to induce graft versus host disease (GVHD); thymic cellularity was quantified on day 14 after allogeneic hematopoietic stem cell transplant (allo-HCT, n=5-6/group). (4D) 6-8 week-old female C57BL/6 mice were fed with normal or ZD diet for 21 days at which point mice were given 550 cGy TBI and total thymus cellularity quantified on day 14. […] (4E) Total thymic cellularity. (4F) Total number of cTECs and mTECs. (4G) Total number of Ki-67+ thymic endothelial cells (TECs). […]

Bmp4 in exECs [2] = assay: BMP4 protein by ELISA in exECs; type: cell-based, mouse
Method: FIGS. 10A-10F. G-protein coupled receptor 39 (GPR39) expressed by thymic endothelial cells is the central mediator of Zn-centered regeneration. […] Bmp4 expression was measured by qPCR (n=6 combined from two independent experiments). (10B) GPR39 expression across subsets in the thymus by flow cytometry at baseline. […] (10C) Expression of GPR39 on cTECs, mTECs, ECs and fibroblasts at days 0, 4, and 7 after TBI. […] BM P4 was measured by ELISA.

[3] = system: mice given TCD allo-HCT from RAG2-GFP donors; settings: ZnSO4 in drinking water, peripheral blood and spleen after HCT, day 53
Method: FIGS. 12A-12D. […] (12A). […] (12B) Splenic T cells were analyzed for GFP expression on day 53 (n=4-5/group).

ERK1/2 = settings: exECs stimulated with Zn
Source text: Flow cytometry, multidimensional analyses, and FACS sorting. For flow cytometry and cell sorting, surface antibodies against CD45 (30-F11), CD31 (390 or MEC13.3), CD90.2 (30-H12), TER-119 (TER-119), CD4 (RM4-5 or GK1.5), CD8 (53-6.7), TCRβ (H57-597), CD3 (145-2C11), CD44 (IM7), CD25 (PC 61.5), CD62L (MEL14), MHC-II IA/IE (M5/114.15.2), EpCAM (G8.8), Ly51 (6C3), CD11c (HL3), IL-7Ra (A7R34), CCR6 (140706), CD45.1 (A20), CD45.2 (104), ki-67 (16A8), and PDGFRa (APAS) were purchased from BD Biosciences (Franklin Lakes, N.J.), BioLegend (San Diego, Calif.) or eBioscience (San Diego, Calif.). Ulex europaeus agglutinin 1 (UEA-1), conjugated to FITC or Biotin, was purchased from Vector Laboratories (Burlingame, Calif.). GPR39 conjugated to FITC was purchased from Signalway Antibody (College Park, Md.). Red blood cell lysis was performed with ACK buffer (Thermo Scientific, Waltham, Mass.). Flow cytometry was performed on a Fortessa X50 (BD Biosciences, Franklin Lakes, N.J.) and cells were sorted on an Aria II (BD Biosciences) using FACSDiva (BD Biosciences, Franklin Lakes, N.J.). For intracellular cytokine or phosphoprotein analysis, cells were fixed and permeabilized using Fix Buffer I and Phospho-Perm Buffer III from BD Bioscience (Franklin Lakes, N.J.). Fluozin-3 AM was purchased from Thermo Fisher (Waltham, Mass.). Analysis was performed by FlowJo (Treestar Software, Ashland, Oreg.).

[4] = system: Bmp4 in endothelial cells (ECs); settings: 300 mg/kg/day ZnSO4 21 days before TBI, ECs sorted at day 7
Source text: (§4) FIGS. 8A-8F. […] (8A) 6-8 week-old female C57BL/6 mice were fed a normal or ZD diet for 21 days at which point mice were given 550 cGy TBI. […] Levels of BMP4 were quantified by enzyme-linked immunoassay (ELISA) at day 10 after TBI (n=5-10/group from one independent experiment). […] Mice were maintained on Zn-supplemented drinking water for the duration of the study. (8B) BMP4 levels measured by ELISA at day 10 (n=9/group combined from three independent experiments). (8C) Endothelial cells (ECs) were fluorescence-activated cell sorting (FACS) purified at day 7 and Bmp4 expression was measured by qPCR (n=6/group combined from two independent experiments). […] Total thymus cellularity was quantified at day 10 after TBI (n=5/group from one independent experiment).
PCR and Microarray. Reverse transcription-PCR was performed with iScript Clear gDNA cDNA synthesis kit (Bio Rad, Hercules, Calif.) on CFX96 (Bio Rad, Hercules, Calif.) with iTaq Universal SYBR Green (Bio Rad). Relative amounts of mRNA were calculated by the comparative AC(t) method or as relative expression. […] Microarray data from CD45^− cells was analyzed on day 0, 4 and 7 as previously described (Wertheimer et al., Science Immunology. 2018, 3(19)) (GSE106982) and differential gene expression of Gpr39 was calculated.

Bmp4 in exECs [5] = assay: Bmp4 expression by qPCR in exECs; type: cell-based, mouse; settings: ZnSO4 50 and 100 μM, 24 hours
BMP4 = system: BMP4
Source text: as §4
(§5) ELISA and Western Blot. Cell culture or tissue lysates were prepared in RIPA buffer (Thermo, Waltham, Mass.) as previously described (Wertheimer et al., Science Immunology. 2018, 3(19)) and normalized by BCA assay (Thermo, Waltham, Mass.). BMP4 levels were quantified by ELISA (LSBio, Seattle, Wash.) and read on a Spark 10M plate reader (Tecan, Switzerland). Cortisol levels were measured with ELISA on peripheral blood (R&D systems, Minneapolis, Minn.).

[6] = system: Foxn1 in TE-71 (mTEC) cells; assay: Foxn1 expression by qPCR in TE-71 cells; type: cell-based, mouse
Method: as §2
PCR and Microarray. […] Bmp4: Biorad qMmuCED0046239. Foxn1: Biorad qMmuCED0044924.

[7] = 300 mg/kg/day ZnSO4 in drinking water for 21 days, Fluozin-3 and ICP-MS
Method: FIGS. 9A-9G. […] (9A, 9B) 6-8 week-old female C57BL/6 mice were given 550 cGy TBI and levels of Zn were measured by inductively coupled plasma mass spectrometry (ICP-MS). (9A) Total thymic amounts of Zn from both intracellular and extracellular fractions of thymus (n=6/timepoint). (9B) Extracellular Zn was measured only in thymic supernatants and the ratio of extracellular to total thymic Zn was calculated (n=6/timepoint). […] Thymocytes were isolated either before or 48 hours after TBI and co-cultured with exECs. Bmp4 expression was measured by qPCR at 24 hours (n=3-4/group). […] Thymus cellularity was measured at day 28 after TBI (n=4-5/group). (9E) 6-8 week-old female C57BL16 mice were fed a normal or ZD diet for 21 days after which thymocytes were isolated by CD90+ magnetic separation. Intracellular Zn levels were measured by staining with Fluozin-3 and assessed by flow cytometry (n=5/group across two independent experiments).

TE-71 (mTEC) cells = settings: TE-71 cells, graded doses of ZnSO4, 24 h
Method: as §1, §3, §5

C9 (cTEC) cells = settings: graded doses of ZnSO4, 24 h
Method: as §1, §3, §5

[8] = system: lineage-negative bone marrow (BM) co-cultured with OP9-DL1 cells; settings: ZnSO4 10 μM added from day 0, read at day 30, versus control
Source text: Concatenated flow cytometry plots displaying CD4 and CD8 expression at day 30 (n=5 independent experiments).
To confirm the importance of Zn on T cell maturation, lineage-negative bone marrow (BM) isolated from C57BL/6 mice were co-cultured on the OP9-DLL1 system, which is able to support T cell development in vitro (Schmitt et al., Nat Immunol. 2004, 5(4):410-417; and Holmes et al., Cold Spring Harb Protoc. 2009, 2009(2):pdb prot5156).
OP9-DL1 cells were kindly provided by J. C. Zuniga-Pflucker, University of Toronto and cultured as previously described (Holmes et al., Cold Spring Harb Protoc. 2009, 2009(2):pdb prot5156) using lineage-negative BM (using a lineage depletion kit, Miltenyi Biotech, Germany). Flt-3L and IL-7 were purchased from Peprotech (Rocky Hill, N.J.).

Question: With `Cc1ccc2c(c1)C=Cc1cc(C)ccc1C2c1cn(Cc2ccc(C(=O)Nc3nn[nH]n3)o2)c(=O)[nH]c1=S` [AR-C 1182925XX] as the compound, how does the “effect on P2Y2 agonist-induced Foxn1 expression” value (Foxn1 in C9 (cTEC) cells; C9 cells, P2Y2 antagonist, 20 h) read?
Answer: reversed

Question: Which results are given for `Nc1ncnc2c1ncn2[C@@H]1O[C@H](COP(=O)(O)OP(=O)(O)OP(=O)(O)O)[C@@H](O)[C@H]1O` [ATP]?
Answer: Foxn1 expression (Foxn1 in C9 (cTEC) cells; C9 cells, ATP, 20 h): potent inducer of FOXN1; thymic regeneration (thymus cellularity) ([1]; ATP by intraperitoneal injection at d3 after SL-TBI (legend: 5 mg/kg bzATP)): superior thymic regeneration; also recorded: enhancing thymus cellularity

Question: Which BMP4 production (Bmp4 in exECs [2]; ERK inhibitor FR180204 prior to ZnSO4 (100 μM), 24 hours) does the source give for `Nc1[nH]nc2nnc(-c3c(-c4ccccc4)nn4ccccc34)cc12` [FR180204] here?
Answer: BMP4 production was abrogated

Question: With `O=c1ccn([C@@H]2O[C@H](COP(=O)([O-])OP(=O)([O-])OP(=O)([O-])OP(=O)([O-])Oc3ccccc3)[C@@H](O)[C@H]2O)c(=O)[nH]1.[Na+].[Na+].[Na+].[Na+]` [MRS 2768, tetrasodium; [[(2R,3S,4R,5R)-5-(2,4-dioxopyrimidin-1-yl)-3,4-dihydroxyoxolan-2-yl]methoxy-oxidophosphoryl] [oxido-[oxido(phenoxy)phosphoryl]oxyphosphoryl] phosphate] as the compound, how does the Foxn1 expression (Foxn1 in C9 (cTEC) cells) read?
Answer: increase in Foxn1 expression

Question: And the “thymic regeneration (thymus cellularity)” value ([1]; MRS 2768 5 mg/kg IP at day 3 after 550 cGy TBI, 5 mg/kg)?
Answer: superior thymic regeneration; also recorded: enhancing thymus cellularity

Question: What about the cTEC numbers ([1]; MRS 2768 5 mg/kg, d13 following TBI, 5 mg/kg) of the same compound?
Answer: increased cTEC numbers; also recorded: expanding cTECs

Question: Which results are given for `O=S(=O)([O-])[O-].[Zn+2]` [ZnSO4, zinc sulphate]?
Answer: GFP+ CD4+ and CD8+ lymphocytes (recent thymic emigrants) [3]: higher levels of GFP+CD4+ and CD8+ lymphocytes; phosphorylation of ERK1/2 (ERK1/2): led to phosphorylation of ERK1/2; Foxn1 expression (Foxn1 in C9 (cTEC) cells; C9 cells, 100 μM ZnSO4, 24 h): did not show any direct effect; Bmp4 expression in purified ECs [4]: increased expression of Bmp4; transcription of Bmp4 (Bmp4 in exECs [5]): dose-dependent increase; BMP4 levels in the thymus (BMP4; 300 mg/kg/day ZnSO4 21 days before TBI without prior ZD, day 10): increased levels of BMP4; BMP4 levels in the thymus (BMP4; ZD diet 21 days, 550 cGy TBI, 300 mg/kg/day ZnSO4 in drinking water from day 0, day 10): restored BMP4 levels; BMP4 protein (Bmp4 in exECs [2]; ZnSO4, 48 hours): confirmed at the protein level; Foxn1 expression ([6]; TE-71 cells, 100 μM ZnSO4, 24 h): did not show any direct effect; intracellular Zn in thymocytes [7]: significantly increased levels of intracellular Zn; TEC proliferation (TE-71 (mTEC) cells): did not show any direct effect; TEC proliferation (C9 (cTEC) cells): did not show any direct effect; production of DP (CD4+CD8+) cells [8]: more robust production of DP

Question: Which results are given for `C/C=C(/C)C(=O)O[C@H]1C(C)=C2[C@H]([C@@H]1OC(=O)CCCCCCC)[C@@](C)(OC(C)=O)C[C@H](OC(=O)CCC)[C@@]1(O)[C@H]2OC(=O)[C@@]1(C)O` [thapsigargan]?
Answer: effect on tunicamycin-induced Foxn1 expression (Foxn1 in C9 (cTEC) cells; C9 cells, Thapsigargan 1 μg/ml): reversed; effect on tunicamycin-induced Foxn1 expression ([6]; TE71 cells, Thapsigargan 1 μg/ml): reversed

Question: Which Foxn1 expression (Foxn1 in C9 (cTEC) cells; C9 cells, Tunicamycin 5 ug/ml) does the source give for tunicamycin here?
Answer: induced Foxn1 expression

Question: And the Foxn1 expression ([6]; TE71 cells, Tunicamycin 5 ug/ml)?
Answer: induced Foxn1 expression
